Experimental data published in patent US9309235B2, “SGC stimulators” (IRONWOOD PHARMACEUTICALS, INC., priority 2012, dated 2016).

Experiments:
[1] = system: lambs with acute pulmonary hypertension; conditions: cited from earlier work; for effect on mean arterial pressure / pulmonary vasodilation / transpulmonary cGMP release / systemic arterial oxygenation: inhaled microparticles, awake lambs; for effect on mean arterial pressure / pulmonary vasodilation / transpulmonary cGMP release: U-46619 infusion
[2] = target: T1, soluble guanylate cyclase (sGC) (Homo sapiens, UniProt Q02108+Q02153); experiment: sGC-HEK-cGMP assay (run with SNP incubation); format: cell-based; conditions: for EC50: full concentration-response curve, with SNP incubation, read-out: HEK assay EC50-unconstrained; for EC50 / Emax: top not fitted to 100%; for Emax: maximum activity from full concentration-response curve, relative to positive control BAY 41-2272, read-out: HEK assay Emax-unconstrained (Percent); for Emax at 1 µM: test compound 1 μM, read-out: HEK assay (Percent Emax at 1 μM); for Emax at 1 µM / Emax at 10 µM / Emax at 30 µM: 10 μM SNP, Emax = 100% is BAY 41-2272 at 10 μM in the presence of 100 μM SNP; for Emax at 10 µM: test compound 10 μM, read-out: HEK assay (Percent Emax at 10 μM); for Emax at 30 µM: test compound 30 μM, read-out: HEK assay (Percent Emax at 30 μM)
T1 construct: endogenously expressing soluble guanylate cyclase (sGC); endogenous in cells; host or cells: HEK293
T1 sequence (Q02153 1-619): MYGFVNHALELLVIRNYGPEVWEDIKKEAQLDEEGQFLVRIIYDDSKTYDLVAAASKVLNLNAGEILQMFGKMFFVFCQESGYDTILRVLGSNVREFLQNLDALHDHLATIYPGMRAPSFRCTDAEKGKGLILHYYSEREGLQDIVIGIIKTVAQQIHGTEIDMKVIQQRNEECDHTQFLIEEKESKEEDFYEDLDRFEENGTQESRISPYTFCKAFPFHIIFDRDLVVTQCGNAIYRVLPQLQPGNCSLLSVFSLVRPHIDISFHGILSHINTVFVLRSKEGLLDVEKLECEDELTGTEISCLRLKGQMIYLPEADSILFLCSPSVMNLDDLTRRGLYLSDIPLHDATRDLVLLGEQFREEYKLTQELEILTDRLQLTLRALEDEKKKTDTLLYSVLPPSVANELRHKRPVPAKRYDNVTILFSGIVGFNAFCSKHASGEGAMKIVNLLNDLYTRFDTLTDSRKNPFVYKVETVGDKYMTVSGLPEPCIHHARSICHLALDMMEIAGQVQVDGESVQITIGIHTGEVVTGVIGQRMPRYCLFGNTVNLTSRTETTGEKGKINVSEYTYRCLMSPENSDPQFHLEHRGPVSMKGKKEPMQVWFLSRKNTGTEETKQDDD
T1 sequence (Q02108 1-690): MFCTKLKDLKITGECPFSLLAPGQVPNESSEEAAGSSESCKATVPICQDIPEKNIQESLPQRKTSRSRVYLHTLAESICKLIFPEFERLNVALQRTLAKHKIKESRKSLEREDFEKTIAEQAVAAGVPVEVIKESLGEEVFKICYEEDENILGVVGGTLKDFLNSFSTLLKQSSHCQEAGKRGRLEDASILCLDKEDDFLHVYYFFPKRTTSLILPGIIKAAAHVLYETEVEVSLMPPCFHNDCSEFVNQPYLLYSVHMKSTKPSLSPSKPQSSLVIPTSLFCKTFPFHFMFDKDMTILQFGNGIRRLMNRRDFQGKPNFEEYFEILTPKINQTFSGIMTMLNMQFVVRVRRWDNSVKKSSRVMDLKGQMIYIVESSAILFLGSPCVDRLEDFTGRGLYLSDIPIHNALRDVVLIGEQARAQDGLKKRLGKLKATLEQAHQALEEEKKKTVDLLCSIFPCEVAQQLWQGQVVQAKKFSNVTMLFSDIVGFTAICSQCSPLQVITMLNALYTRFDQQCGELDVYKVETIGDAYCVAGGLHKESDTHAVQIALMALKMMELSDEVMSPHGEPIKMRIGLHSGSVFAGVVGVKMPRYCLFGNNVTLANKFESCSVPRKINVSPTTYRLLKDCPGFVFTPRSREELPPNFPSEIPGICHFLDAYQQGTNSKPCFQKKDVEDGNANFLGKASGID
Procedure: (Assay Run with SNP Incubation)
Human embryonic kidney cells (HEK293), endogenously expressing soluble guanylate cyclase (sGC), were used to evaluate the activity of test compounds. Compounds stimulating the sGC receptor should cause an increase in the intracellular concentration of cGMP. HEK 293 cells were seeded in Dulbecco's Modification of Eagle's Medium supplemented with fetal bovine serum (10% final) and L-glutamine (2 mM final) in a 200 μL volume at a density of 1×10^5 cells/well in a poly-D-lysine coated 96 well flat bottom plate and grown overnight at 37° C. Medium was aspirated and cells were washed with 1× Hank's Buffered Saline Salt Solution (200 μL). Cells were then incubated for 15 minutes at 37° C. with 200 μL of a 0.5 mM 3-isobutyl-1-methylxanthine (IBMX) solution. Test article and sodium nitroprusside solutions (x μM concentration for test article solution and 10 μM concentration for SNP solution; wherein x is one of the following concentrations);
were then added to the assay mixture (2 μL each) and the resulting mixture incubated at 37° C. for 10 minutes. After the 10 minute incubation, the assay mixture was aspirated and 0.1M HCl (200 μL) was added to the cells. The plate was incubated at 4° C. for 30 minutes in the 0.1M HCl to stop the reaction and lyse the cells. The plates were then centrifuged at 1,200 g for 5 minutes at room temperature. Supernatants were collected and transferred to a new flat bottom 96 well plate for analysis by HPLC-MS. Vehicle controls were carried out using DMSO (1%) solutions. A known sGC stimulator, BAY 41-2272, was used as the positive control. Samples were diluted with an equal volume of 1 M Ammonium Acetate (pH 7) to neutralize samples for better chromatography. A 2× cGMP standard solution was prepared in 0.1 M HCl and then diluted with an equal volume of 1 M Ammonium Acetate, with the following final concentrations in nM: 1024, 512, 256, 128, 64, 32, 16, 8, 4, 2, 1. cGMP concentrations in the test plates were determined from each sample using the LC/MS conditions shown in Table 2 below and the calculated cGMP standard curve. EC50 values were calculated from concentration-response curves generated with GraphPad Prism Software.
The biological activities of some of the compounds of Formula I determined with the sGC—HEK assay with SNP incubation are summarized in Tables 3A and 3B.

[3] = target: T2, Human soluble guanylate cyclase enzyme (hsGC) (Homo sapiens, UniProt Q02108+Q02153); experiment: Purified human sGC enzyme synergy assay in the presence of sodium nitroprusside (SNP); format: biochemical; conditions: 30 μM compound in the presence of 1 μM SNP; fold increase over DMSO controls
T2 construct: purchased Enzo Inc. ALX-201-177
T2 sequence (Q02153 1-619): T1 sequence (Q02153 1-619)
T2 sequence (Q02108 1-690): T1 sequence (Q02108 1-690)
Procedure: Human soluble guanylate cyclase enzyme (hsGC) obtained from Enzo Inc. (P/N: ALX-201-177) was used to evaluate the activity of test compounds. The assay reactions contained 0.1 M Tris (pH 8.0), 0.5 mg/mL BSA (pH 8.0), 2 mM DTT, 2 mM MgCl2, 300 μM GTP, 1 mM 3-isobutyl-1-methylxanthine (IBMX) and 5 ng human soluble guanylate cyclase enzyme. Test compounds in DMSO were then added (2 μL, 10 or 30 μM final concentration) and incubated (water, 200 μL, 96-well plate format) at 37° C. for 30 minutes. The controls were carried out using 2 μL DMSO. After the 30 minute incubation, the reaction was stopped with the addition of 200 μL of cold methanol. The plate was then centrifuged at 3,200 rpm for 10 minutes at room temperature. Supernatants (200 μL) were collected and transferred to a new 96 well plate for analysis by HPLC LC/MS/MS.
An 8 point cGMP (Sigma-Aldrich P/N: G6129) standard curve was prepared in assay buffer ranging from 0.156-20 μM. Samples for the cGMP standard curve were then diluted with an equal volume of methanol resulting in final cGMP concentrations of 0.078-10 μM.
The cGMP standard curve was generated using GraphPad Prism Software.
Calculations: Specific Activity was determined by the amount of cGMP formed (nmoles) per mg of sGC per min. Enzyme “fold-change” was calculated by dividing Specific Activity for test compounds by Specific Activity of DMSO controls. […]

[4] = system: Guinea pig tracheal smooth muscle; experiment: Electrical field stimulated guinea pig tracheal smooth muscle contraction (ex vivo); conditions: pooled from three experiments; 95% CI 0.78-0.94; read-out: IC50, inhibition of EFS-induced tracheal smooth muscle contraction
From the text: Animals: Guinea pig, Dunkin Hartley, male, Full barrier-bred and certified free of specific micro-organisms on receipt 525-609 g on the experimental day, Harlan UK Ltd. Guinea pigs were housed in a group of 4 in solid-bottomed cages with Gold Flake bedding in a controlled environment (airflow, temperature and humidity). Food (FD1, Special Diet Services) and water were provided ad libitum.
On each experimental day, a guinea pig was killed by exposure to a rising concentration of CO2 and the trachea removed. The trachea was cleaned of extraneous tissue and cut open longitudinally in a line opposite the muscle, opened out and cut into strips 2-3 cartilage rings wide. […] Tissues were washed with Kreb's buffer and stimulated using the previously determined sub-maximal voltage for 1 hour to establish a stable baseline contraction prior to assessment of compound activity. *“Novel and Versatile Superfusion System. […]
A cumulative dose response curve (DRC) to each test substance was then performed and changes in smooth muscle contraction measured. The effect of each test substance in each experiment was expressed as a percentage inhibition of the baseline contraction, normalized to the relevant vehicle controls. […] The data from all three experiments was pooled, the DRC plotted, and the test substance potency and efficacy determined.

For `Nc1nc(-c2nn(Cc3ccccc3F)c3ncccc23)ncc1C1CC1` [BAY 41-2272], the “effect on mean arterial pressure” value [1] is given as “without significant effect”, the pulmonary vasodilation [1] is given as “dose dependent pulmonary vasodilation” and the “transpulmonary cGMP release” value [1] is given as “increased transpulmonary cGMP release”.

In the case of `Nc1nc(-c2nn(Cc3ccccc3F)c3ncccc23)nc(N)c1N1CCOCC1` [BAY 41-8543], the “magnitude and duration of pulmonary vasodilation induced by iNO” value ([1]; after inhaling microparticles) is given as “augmented”, the “effect on mean arterial pressure” value [1] is given as “without significant effect” and the pulmonary vasodilation [1] is given as “dose dependent pulmonary vasodilation”. The “transpulmonary cGMP release” value [1] was “increased transpulmonary cGMP release” and the systemic arterial oxygenation [1] was “increased systemic arterial oxygenation”.

For `O=C(O)CCCCN(CCc1ccccc1OCc1ccc(CCc2ccccc2)cc1)Cc1ccc(C(=O)O)cc1` [BAY 58-2667], the “pulmonary vasodilation and transpulmonary cGMP release after treatment with ODQ” value ([1]; inhaled microparticles after intravenous ODQ) is given as “greatly enhanced”, the “effect on mean arterial pressure” value [1] is given as “without significant effect” and the pulmonary vasodilation [1] is given as “dose dependent pulmonary vasodilation”. For the same compound, the “transpulmonary cGMP release” value [1] was “increased transpulmonary cGMP release” and the systemic arterial oxygenation [1] was “increased systemic arterial oxygenation”.

In the case of `Nc1ccnc(-c2cc(-c3ccon3)n(Cc3ccsc3)n2)n1` [Compound I-1], the EC50 [2] is reported as 1000 to 5000 nM, the Emax [2] is reported as 60 to 80% and the Emax at 1 µM [2] is reported as 20 to 40%. The Emax at 10 µM [2] was 40 to 60%, the Emax at 30 µM [2] was 60 to 80% and the “Enzyme Activity (increase at 30 μM with SNP)” value [3] was “D (D = 10 or <20 fold increase)”.

With `Oc1nc(-c2cc(-c3ccon3)n(Cc3ccsc3)n2)ncc1F` [Compound I-2] the EC50 [2] was 500 to 1000 nM, the Emax [2] was 40 to 60% and the Emax at 1 µM [2] was 20 to 40%. The Emax at 10 µM [2] was 40 to 60%, the Emax at 30 µM [2] was 40 to 60% and the “Enzyme Activity (increase at 30 μM with SNP)” value [3] was “D (D = 10 or <20 fold increase)”.

In the case of `Oc1nc(-c2cc(-c3ccon3)n(Cc3sccc3F)n2)ncc1F` [Compound I-3], the EC50 [2] is reported as 10 to 100 nM, the Emax [2] is reported as 40 to 60% and the Emax at 1 µM [2] is reported as 40 to 60%. It also gave an Emax at 10 µM [2] of 40 to 60% and an Emax at 30 µM [2] of 60 to 80%.

For `Oc1nc(-c2cc(-c3ccon3)n(Cc3cccs3)n2)ncc1F` [Compound I-4], the EC50 [2] was 5000 to 10000 nM, the Emax [2] was 60 to 80% and the Emax at 1 µM [2] was 0 to 10%. The Emax at 10 µM [2] was 40 to 60% and the Emax at 30 µM [2] was 40 to 60%.

For `CC(C)[N+]1(C)[C@@H]2CC[C@H]1CC(OC(=O)C(CO)c1ccccc1)C2` (stereo partly shown) [Ipratropium bromide], the IC50 [4] was 0.86 nM.

In the case of `O=c1onc2cnc3ccccc3n12` [ODQ, 1H-[1,2,4]oxadiazolo[4,3-a]quinoxalin-1-one], the “pulmonary vasodilator effect of iNO” value ([1]; intravenous administration) is listed as “markedly reduced”.
